Laboratory results taken from patent publication EP4792811A1, “S1PR4 REGULATOR COMPOUND FOR MUSCLE DISEASE TREATMENT AND APPLICATION THEREOF” (Shengyuan Zetong (Shanghai) Pharmaceutical Co., Ltd, priority 2023, dated 2025).

Tests used:
S1PR5 = molecular target: T1, S1PR5 (Homo sapiens, UniProt Q9H228); assay: FLIPR assay, S1PR5-CHO cell line; format: cell-based
T1 construct: expressed in transfected cells; host or cells: CHO
Protocol: ^a β-arrestin recruitment activity based on Tango-S1PR1-CHO-K1 and Tango-S1PR4-CHO-K1 cells, expressed as mean EC50 values ± SD. ^b FLIPR assays were performed using S1PR2-CHO and S1PR5-CHO cell lines, expressed as mean EC50 values ± SD. ^c β-arrestin recruitment activity based on PathHunter CHO-K1-S1PR3 cells, expressed as mean EC50 values ± SD. Data are the mean of at least two independent determinations, reported as mean ± SD (standard deviation).

[1] = system: S1PR4-R82C/NDUFA10-R217W double-mutant mice; assay: In vivo efficacy in S1PR4-R82C/NDUFA10-R217W double-mutant muscular dystrophy mice; conditions: for grip strength (ratio of grip strength to body weight): after 21 days of treatment; for body weight gain trend: compared with the model group; for collagen deposition (collagen area ratio): after administration
Protocol: Experimental Animals: A total of 34 S1PR4-R82C/NDUFA10-R217W mice were divided into 6 groups as shown below.
Intragastric administration was initiated on Day 0, and body weight was measured daily during the experiment to adjust the drug dosage. Grip strength was measured at the beginning and end of the experiment to observe motor changes in mice. Changes in the limb grip strength, serum creatine kinase content, and muscle fibrosis/inflammation in mice were detected as indicators for evaluating drug efficacy.
(§1) The mouse was placed horizontally on the grip test board. The mouse's tail was held and pulled gently in the opposite direction without using excessive force. The tail was gradually pulled until the mouse released the grip force sensor. The maximum value recorded by the grip force sensor is the grip strength. The test was repeated for 3 times and the average value was taken.
(§2) After the completion of administration, blood was collected via the orbital sinus, allowed to stand for 30 minutes, centrifuged at 3000 rpm at 4°C for 15 minutes, and serum was extracted, stored frozen at -20°C, and detected in accordance with the kit instructions.
(§3) After the experiment, the tibialis anterior, extensor digitorum longus, and diaphragm of the mice were harvested, fixed, sectioned, and subjected to HE staining and Sirius Red staining to observe the degree of muscle fibrosis. The slice was subjected to immunofluorescence staining with F4/80 to observe the level of muscle inflammation.

[2] = system: Duchenne muscular dystrophy model mice; assay: In vivo pharmacodynamic test in Duchenne muscular dystrophy model mice (Compound 30); conditions: for serum creatine kinase level: after treatment
Protocol: Experimental Animals: A total of 35 Duchenne muscular dystrophy model mice were divided into 6 groups as shown below.
Intragastric administration was initiated from Day 0. Body weight was measured daily during the experiment to adjust the drug dosage. Grip strength tests were performed every 2 days to observe changes in the mice's grip strength until the experiment concluded on Day 21. Changes in the limb grip strength, serum creatine kinase content, and muscle fibrosis/inflammation in the mice were detected as indicators for evaluating drug efficacy.
as §1, §2, §3

[3] = 0.3 mg/kg intragastric once daily
[4] = 1 mg/kg intragastric once daily
[5] = 1 mg/kg intragastric once daily, after treatment
[6] = 3 mg/kg intragastric once daily
[7] = 0.3 mg/kg intragastric once daily, compared with the model group

T1 sequence (Q9H228 whole entry, species assumed): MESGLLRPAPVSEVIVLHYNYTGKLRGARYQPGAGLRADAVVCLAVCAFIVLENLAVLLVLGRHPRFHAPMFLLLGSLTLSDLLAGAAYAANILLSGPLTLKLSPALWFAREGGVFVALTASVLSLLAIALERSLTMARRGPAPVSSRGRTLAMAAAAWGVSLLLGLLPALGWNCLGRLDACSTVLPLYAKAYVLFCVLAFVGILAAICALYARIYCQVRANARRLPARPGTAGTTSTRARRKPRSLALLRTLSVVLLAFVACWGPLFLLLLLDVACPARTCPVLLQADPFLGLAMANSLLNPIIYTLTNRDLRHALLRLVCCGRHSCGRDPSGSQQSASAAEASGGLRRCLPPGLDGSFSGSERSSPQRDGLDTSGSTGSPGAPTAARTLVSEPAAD

CCc1cc(/C(C)=N/OCc2ccc(-c3ccccc3)c(C)c2)ccc1CN1CC[C@H](C(=O)O)C1 [Compound 30]
agonist activity on S1PR5 (S1PR5; compared with the endogenous ligand S1P): no agonist activity
Emax (S1PR5; selectivity table, FLIPR, S1PR5-CHO): 19.5%
grip strength (ratio of grip strength to body weight) [1, 3]: significantly increased
body weight gain trend [1, 3]: no difference
grip strength (ratio of grip strength to body weight) [1, 4]: significantly increased
collagen deposition (collagen area ratio) [1, 4]: significantly reduced collagen deposition
macrophage content (F4/80 immunofluorescence, muscle inflammation) [1, 5]: greatest reduction
number of centrally nucleated fibers (HE staining) [1, 5]: greatest reduction
serum creatine kinase level [1, 5]: significantly reduced
body weight gain trend [1, 4]: no difference
collagen deposition (collagen area ratio) [1, 6]: significantly reduced collagen deposition
body weight gain trend [1, 6]: no difference
serum creatine kinase level ([1]; 4 mg/kg (so in the source) intragastric once daily, after treatment): significantly reduced
collagen deposition (collagen area ratio) [2, 3]: significantly reduced collagen deposition
serum creatine kinase level [2, 3]: significantly reduced
body weight growth trend [2, 7]: no difference
number of centrally nucleated fibers (HE staining) [2, 7]: no significant difference
collagen deposition (collagen area ratio) [2, 4]: significantly reduced collagen deposition
macrophage content (F4/80 immunofluorescence, muscle inflammation) [2, 4]: significantly reduced macrophage content
number of centrally nucleated fibers (HE staining) [2, 4]: significantly reduced
serum creatine kinase level [2, 4]: significantly reduced
body weight growth trend ([2]; 1 mg/kg intragastric once daily, compared with the model group): no difference
collagen deposition (collagen area ratio) [2, 6]: significantly reduced collagen deposition
macrophage content (F4/80 immunofluorescence, muscle inflammation) [2, 6]: significantly reduced macrophage content
number of centrally nucleated fibers (HE staining) [2, 6]: significantly reduced
serum creatine kinase level [2, 6]: significantly reduced
body weight growth trend ([2]; 3 mg/kg intragastric once daily, compared with the other groups): relatively slow
increase in grip strength (ratio of grip strength to body weight) ([2]; 3 mg/kg intragastric once daily, first 14 days): most significant
